pIC50: −log10 of the molar value.
Assays:
Assay type in all cases: functional, cell-based
MCF7 = experiment: Cytotoxicity against human MCF7 cells after 48 hrs by MTS assay; conditions: MCF7, 48 h
HL-60 = experiment: Cytotoxicity against human HL60 cells after 48 hrs by MTS assay; conditions: HL-60, 48 h
SW480 = experiment: Cytotoxicity against human SW480 cells after 48 hrs by MTS assay; conditions: SW480, 48 h
SMMC-7721 = experiment: Cytotoxicity against human SMMC7721 cells after 48 hrs by MTS assay; conditions: SMMC-7721, 48 h
A549 = experiment: Cytotoxicity against human A549 cells after 48 hrs by MTS assay; conditions: A549, 48 h

| SMILES | pIC50 (MCF7) | pIC50 (HL-60) | pIC50 (SW480) | pIC50 (SMMC-7721) | pIC50 (A549) |
| --- | --- | --- | --- | --- | --- |
| C=C1C(=O)[C@]23[C@H](O)[C@H]1CC[C@H]2[C@@]12CO[C@@]3(O)[C@@H](O)[C@@H]1[C@](C)(CO)CC[C@@H]2O | < 5.00 | < 5.00 | < 5.00 | < 5.00 | < 5.00 |
| COC[C@@H]1C(=O)[C@]23[C@H](O)[C@H]1[C@@H](O)C[C@H]2[C@]12CCC[C@@](C)(CO)[C@H]1[C@H](O)[C@]3(O)OC2 | < 5.00 | < 5.00 | < 5.00 | < 5.00 | < 5.00 |
| C=C1C(=O)[C@]23C[C@H]1CC[C@H]2[C@@]12CO[C@@]3(O)[C@@H](O)[C@@H]1[C@](C)(COC(C)=O)CC[C@@H]2OC(C)=O | 5.53 | 5.61 | 6.00 | 5.69 | 5.44 |
| C=C1C(=O)[C@]23C[C@H]1CC[C@H]2[C@]12CC[C@@H](O)[C@@](C)(COC(C)=O)[C@H]1[C@H](O)[C@]3(O)OC2 | 4.83 | 4.90 | 5.43 | 4.85 | 4.79 |
| C=C1[C@@H]2C[C@H](O)[C@H]3[C@@]45CO[C@@](O)([C@@H](O)[C@@H]4C(C)(C)CC[C@@H]5OC(C)=O)[C@]3(C2)[C@@H]1O | < 5.00 | < 5.00 | < 5.00 | < 5.00 | < 5.00 |
| C=C1C(=O)[C@]23[C@H](O)[C@H]1CC[C@H]2[C@]12CC[C@@H](O)[C@@](C)(COC(C)=O)[C@H]1[C@H](O)[C@]3(O)OC2 | < 5.00 | < 5.00 | < 5.00 | < 5.00 | < 5.00 |
| C=C1[C@@H](O)[C@]23[C@H](O)[C@H]1CC[C@H]2[C@@]12CO[C@@]3(O)[C@@H](O)[C@@H]1[C@](C)(COC(C)=O)CC[C@@H]2O | < 5.00 | < 5.00 | < 5.00 | < 5.00 | < 5.00 |
| C=C1C(=O)[C@]23[C@H](O)[C@H]1CC[C@H]2[C@]12CC[C@@H](O)[C@@](C)(CO)[C@H]1[C@H](O)[C@]3(O)OC2 | < 5.00 | < 5.00 | < 5.00 | < 5.00 | < 5.00 |
| C=C1[C@H]2C[C@@]3([C@@H]1O)[C@@H](C[C@@H]2O)[C@]12CCC[C@@](C)(COC(C)=O)[C@H]1[C@H](O)[C@]3(O)OC2 | < 5.00 | < 5.00 | < 5.00 | < 5.00 | < 5.00 |
| COC[C@H]1C(=O)[C@]23C[C@@H]1CC[C@H]2[C@@]12CO[C@]3(O)[C@@H](O)[C@@H]1C(C)(C)CC[C@@H]2O | 4.86 | 4.76 | 5.11 | 4.84 | 4.85 |
| C=C1C(=O)[C@]23[C@H](O)[C@H]1CC[C@H]2[C@]12CC[C@@H](OC(C)=O)[C@@](C)(CO)[C@H]1[C@H](O)[C@]3(O)OC2 | < 5.00 | < 5.00 | < 5.00 | < 5.00 | < 5.00 |
| C=C1C(=O)[C@]23C[C@H]1C[C@@H](OC(C)=O)[C@H]2[C@@]12CO[C@@]3(O)[C@@H](O)[C@@H]1C(C)(C)CC[C@@H]2O | 4.85 | 5.27 | 5.63 | 4.89 | 4.92 |
| C=C1C(=O)[C@]23[C@H](O)[C@H]1[C@@H](O)C[C@H]2[C@]12CCC[C@@](C)(CO)[C@H]1[C@H](O)[C@]3(O)OC2 | < 5.00 | < 5.00 | < 5.00 | < 5.00 | < 5.00 |
| C=C1C(=O)[C@]23[C@H](O)[C@H]1CC[C@H]2[C@@]12CO[C@@]3(O)[C@@H](O)[C@@H]1[C@](C)(COC(C)=O)CC[C@@H]2O | < 5.00 | < 5.00 | < 5.00 | < 5.00 | < 5.00 |
| COC[C@H]1C(=O)[C@]23C[C@H]1CC[C@H]2[C@@]12CO[C@@]3(O)[C@@H](O)[C@@H]1[C@](C)(COC(C)=O)CC[C@@H]2O (mixture of isomers) | 4.80 | 4.74 | 5.01 | 4.91 | 4.84 |
| COC[C@H]1C(=O)[C@]23[C@H](O)[C@H]1CC[C@H]2[C@@]12CO[C@@]3(O)[C@@H](O)[C@@H]1[C@](C)(CO)CC[C@@H]2O (relative stereo) | < 5.00 | < 5.00 | < 5.00 | < 5.00 | < 5.00 |
| C=C1[C@@H](O)[C@]23[C@H](O)[C@H]1C[C@H](OC(C)=O)[C@H]2[C@]12CCCC(C)(C)[C@H]1[C@H](O)[C@]3(O)O[C@@H]2OCC (relative stereo) | < 5.00 | < 5.00 | < 5.00 | < 5.00 | < 5.00 |
| C=C1[C@@H](O)[C@]23[C@H](O)[C@H]1C[C@H](OC(C)=O)[C@H]2[C@]12CCCC(C)(C)[C@H]1[C@H](O)[C@]3(O)O[C@@H]2O (relative stereo) | < 5.00 | < 5.00 | < 5.00 | < 5.00 | < 5.00 |
| COC[C@H]1C(=O)[C@]23[C@H](O)[C@H]1[C@@H](O)C[C@H]2[C@]12CCC[C@@](C)(COC(C)=O)[C@H]1[C@H](O)[C@]3(O)OC2 (relative stereo) | < 5.00 | < 5.00 | < 5.00 | < 5.00 | < 5.00 |
| COC[C@H]1C(=O)[C@]23C[C@H]1CC[C@H]2[C@@]12CO[C@@]3(O)[C@@H](O)[C@@H]1C(C)(C)CC[C@@H]2OC(C)=O (relative stereo) | 5.49 | 5.42 | 5.91 | 5.40 | 5.17 |
| C=C1[C@@H](O)[C@]23[C@H](O)[C@H]1C[C@H](OC(C)=O)[C@H]2[C@]12CCC[C@@](C)(COC(C)=O)[C@H]1[C@H](O)[C@]3(O)O[C@@H]2O (relative stereo) | < 5.00 | < 5.00 | < 5.00 | < 5.00 | < 5.00 |
| COC[C@@H]1C(=O)[C@]23[C@H](O)[C@H]1CC[C@H]2[C@@]12CO[C@@]3(O)[C@@H](O)[C@@H]1[C@](C)(CO)CC[C@@H]2O (relative stereo) | < 5.00 | < 5.00 | < 5.00 | < 5.00 | < 5.00 |
| C=C1[C@@H](O)[C@]23[C@H](O)[C@H]1C[C@H](OC(C)=O)[C@H]2[C@]12CCC[C@@](C)(COC(C)=O)[C@H]1[C@H](OC(C)=O)[C@]3(O)O[C@@H]2O (relative stereo) | 5.41 | 5.26 | 5.50 | 5.57 | 5.21 |
| COC[C@@H]1C(=O)[C@]23C[C@H]1CC[C@H]2[C@@]12CO[C@@]3(O)[C@@H](O)[C@@H]1C(C)(C)CC[C@@H]2OC(C)=O (single isomer, unassigned) | < 5.00 | < 5.00 | < 5.00 | < 5.00 | < 5.00 |
| CC(=O)O[C@H]1C(=O)[C@@]2(C)[C@H]([C@H](OC(=O)c3ccccc3)[C@]3(O)C[C@H](OC(=O)[C@H](O)[C@@H](NC(=O)c4ccccc4)c4ccccc4)C(C)=C1C3(C)C)[C@]1(OC(C)=O)CO[C@@H]1C[C@@H]2O [PACLITAXEL] | > 8.10 | > 8.10 | > 8.10 | > 8.10 | > 8.10 |
| C=C1C(=O)[C@]23C[C@H]1C[C@H](O)[C@H]2[C@@]12CO[C@@]3(O)C[C@@H]1C(C)(C)CC[C@@H]2O [RABDOCOETSIN C] | 5.28 | 5.37 | 5.74 | 5.04 | 5.02 |
